Drawing on US8207167B2, “Aryl-phenyl-sulfonamide-phenylene compounds and their use” (PIMCO 2664 Limited, priority 2008, dated 2012), this text covers T1/2 and solubility for one molecule.

In brackets after ≈: the same amount, converted by molar mass.

The nature of data set [1]: Human liver microsomal stability assay. Format: in vitro ADME. The following applies: pooled human liver microsomes 0.5 mg/mL, test compound 3 μM, 45 minute incubation, NADPH. As to the method:
Initial screening of candidate compounds was performed using in vitro assays to determine potency, metabolic stability and solubility in biologically relevant fluids. Potency was assessed using a viability assay based on the survival of the J774 macrophage cell line. Macrophages are closely related to osteoclasts and have been used previously as a model system for osteoclast survival (see, e.g., Luckman et al., 1998). Like osteoclasts, J774 macrophages are dependent on continued NFκB activation for survival, thereby providing a valuable screen for compounds with anti-inflammatory activity. Metabolic stability was measured by determining the rate of disappearance of compound in the presence of human liver microsomal preparations, as quantified by LC-MS/MS. Solubility was measured by equilibration of the compound in fasted state simulated intestinal fluid (FaSSIF) and quantified by HPLC.
Metabolic stability of APSAP derivatives was measured by determination of the rate of compound disappearance when incubated in the presence of human liver microsomes. Liver microsomes are prepared from the endoplasmic reticulum of hepatocytes and are the primary source of the most important enzymes (cytochrome P450) involved in drug metabolism. Study of drug stability in the presence of liver microsomes is accepted as a valuable model permitting rapid prediction of in vivo drug stability.
Human liver microsomes were obtained from a commercial source. Test compounds (3 μM) were incubated with pooled liver microsomes (male and female). Samples were incubated for a 45 minute period and removed at 5 time points and test compounds were analysed by LC-MS/MS.
The final incubation volume was 25 μL. A control incubation was included for each compound tested, where 0.1 M phosphate buffer pH 7.4 was added instead of NADPH. The control compounds testosterone and 7-hydroxycoumarin were included in each experiment and all incubations were performed singularly for each compound.
Each compound was incubated for 0, 5, 15, 30, and 45 minutes. The control (minus NADPH) was incubated for 45 minutes only. The reactions were stopped by the addition of 50 μL methanol containing internal standard at the appropriate time points. The incubation plates were centrifuged at 2500 rpm for 20 minutes at 4° C. to precipitate the protein.
Following protein precipitation, the sample supernatants were combined in cassettes of up to 4 compounds and analysed using standard LC-MS/MS conditions.
From a plot of the natural logarithm of the peak area ratio (i.e., the ratio of compound peak area:internal standard peak area) against time, the gradient of the line was determined. Subsequently, half-life and intrinsic clearance were calculated using the equations below: Eliminated rate constant(k)=(−gradient). […] Intrinsic Clearance(CLint)([…])=(V×0.693)/t1/2. wherein V=Incubation volume(μL/mg microsomal protein). Pharmacokinetics Studies
Background: Liver microsomes are vesicles of endoplasmic reticulum, rich in cytochrome P450 enzymes.

Data set [2] is described as follows: Thermodynamic aqueous solubility in fasted state simulated intestinal fluid (FaSSIF). Format: physicochemical. As to conditions: fasted state simulated intestinal fluid (FaSSIF), pH 6.5, thermodynamic from solid, 25° C., 24 hours equilibration, HPLC.

In general, solubility refers to the dissolved amount per volume that the medium holds. Low readings indicate little dissolved substance, high ones much dissolved substance.

On to `CNC(CO)c1cccc(NS(=O)(=O)c2ccc(-c3ccc(F)cc3F)cc2)c1` (centres unmarked) [ABD789, 2′,4′-Difluoro-N-(3-(2-hydroxy-1-(methylamino)ethyl)phenyl)biphenyl-4-sulfonamide], for which the T1/2 entry in data set [1] was “Stable”. In addition, in data set [2], the solubility at 24 h was 520 µg/mL (≈ 1240 µM).
